# Measurements from ChEMBL document CHEMBL1909046, “DrugMatrix in vitro pharmacology data”.
# How the values were obtained:
# [1] = DRUGMATRIX: Glutamate, NMDA, Phencyclidine radioligand binding (ligand: [3H] TCP); assay type: cell membranes, Rattus norvegicus, Wistar, Cerebral cortex, Membrane; details: Not Active = under 50% inhibition at 10 µM
# Acetylcholinesterase = Acetylcholinesterase (Homo sapiens, UniProt P22303); experiment: DRUGMATRIX: Acetylcholinesterase enzyme inhibition (substrate: acetylthiocholine); assay type: cell-based, HEK293; details: Not Active = under 50% inhibition at 10 µM
# Interstitial collagenase = target: T1, Interstitial collagenase (Homo sapiens, UniProt P03956); experiment: biochemical; assay type: tissue-based, Rheumatoid synovial fibroblasts;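 note: MMP-1 enzyme inhibition assay using a peptide substrate; in other assays of this panel Not Active means under 50% inhibition at 10 µM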
# T1 sequence (P03956 whole entry): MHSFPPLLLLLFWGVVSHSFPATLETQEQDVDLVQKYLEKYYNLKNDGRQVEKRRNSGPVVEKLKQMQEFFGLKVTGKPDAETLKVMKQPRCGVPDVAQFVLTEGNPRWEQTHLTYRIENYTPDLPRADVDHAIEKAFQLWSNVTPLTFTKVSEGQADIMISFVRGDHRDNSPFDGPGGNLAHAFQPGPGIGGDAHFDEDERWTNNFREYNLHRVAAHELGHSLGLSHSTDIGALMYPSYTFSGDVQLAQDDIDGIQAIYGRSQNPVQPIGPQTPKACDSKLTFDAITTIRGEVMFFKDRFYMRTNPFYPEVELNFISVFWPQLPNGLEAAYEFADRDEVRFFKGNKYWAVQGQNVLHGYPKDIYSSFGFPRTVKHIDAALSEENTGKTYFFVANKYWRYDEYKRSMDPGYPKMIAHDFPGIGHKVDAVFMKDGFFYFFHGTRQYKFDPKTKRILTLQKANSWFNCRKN
# [2] = DRUGMATRIX: Leukotriene, BLT (LTB4) radioligand binding (ligand: [3H]LTB4); assay type: cell membranes, Membrane; details: u-937, Not Active = under 50% inhibition at 10 µM
# [3] = DRUGMATRIX: Potassium Channel [KATP] radioligand binding (ligand: [3H] Glyburide); assay type: cell membranes, Membrane; details: hit-t15; Not Active = under 50% inhibition at 10 µM
# Nitric oxide synthase 1 = Nitric oxide synthase 1 (Rattus norvegicus, UniProt P29476); assay type: tissue-based, Cerebellum; note: in other assays of this panel Not Active means under 50% inhibition at 10 µM
# Glycine receptor = Glycine receptor (Rattus norvegicus, UniProt P22771+P24524+P07727+P20781); assay type: cell membranes, Wistar, Spinal cord, Membrane; note: in other assays of this panel Not Active means under 50% inhibition at 10 µM
# [4] = target: T2, 3-hydroxy-3-methylglutaryl-coenzyme A reductase (Homo sapiens, UniProt P04035); parameters: species or system Escherichia coli;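 note: enzyme inhibition assay of HMG-CoA reductase using radiolabeled [14C]HMG-CoA as substrate; in other assays of this panel Not Active means under 50% inhibition at 10 µM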
# T2 sequence (P04035 whole entry): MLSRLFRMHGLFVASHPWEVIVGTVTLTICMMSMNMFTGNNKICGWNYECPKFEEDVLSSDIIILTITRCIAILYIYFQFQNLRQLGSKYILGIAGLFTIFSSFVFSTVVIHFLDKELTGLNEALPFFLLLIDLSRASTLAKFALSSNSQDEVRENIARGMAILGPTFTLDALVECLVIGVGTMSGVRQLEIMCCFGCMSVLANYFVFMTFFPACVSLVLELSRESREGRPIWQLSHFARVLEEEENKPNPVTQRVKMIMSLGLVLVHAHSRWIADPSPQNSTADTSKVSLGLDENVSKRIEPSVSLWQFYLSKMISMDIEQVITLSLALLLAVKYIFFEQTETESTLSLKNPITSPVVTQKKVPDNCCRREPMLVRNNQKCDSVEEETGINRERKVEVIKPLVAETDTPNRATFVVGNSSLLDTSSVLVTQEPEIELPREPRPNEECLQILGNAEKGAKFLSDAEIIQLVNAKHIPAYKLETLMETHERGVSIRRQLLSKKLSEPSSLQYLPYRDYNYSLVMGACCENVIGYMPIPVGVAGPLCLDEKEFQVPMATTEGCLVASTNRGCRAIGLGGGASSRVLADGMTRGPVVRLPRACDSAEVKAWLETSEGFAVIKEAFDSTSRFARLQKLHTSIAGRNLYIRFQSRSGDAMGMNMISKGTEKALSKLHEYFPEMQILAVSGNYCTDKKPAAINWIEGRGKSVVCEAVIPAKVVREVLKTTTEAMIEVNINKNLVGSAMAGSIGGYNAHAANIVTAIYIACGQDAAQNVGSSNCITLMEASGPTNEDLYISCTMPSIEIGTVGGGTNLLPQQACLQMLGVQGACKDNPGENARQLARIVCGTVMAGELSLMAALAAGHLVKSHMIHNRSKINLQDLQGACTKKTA
# Sequence of Acetylcholinesterase (P22303 whole entry): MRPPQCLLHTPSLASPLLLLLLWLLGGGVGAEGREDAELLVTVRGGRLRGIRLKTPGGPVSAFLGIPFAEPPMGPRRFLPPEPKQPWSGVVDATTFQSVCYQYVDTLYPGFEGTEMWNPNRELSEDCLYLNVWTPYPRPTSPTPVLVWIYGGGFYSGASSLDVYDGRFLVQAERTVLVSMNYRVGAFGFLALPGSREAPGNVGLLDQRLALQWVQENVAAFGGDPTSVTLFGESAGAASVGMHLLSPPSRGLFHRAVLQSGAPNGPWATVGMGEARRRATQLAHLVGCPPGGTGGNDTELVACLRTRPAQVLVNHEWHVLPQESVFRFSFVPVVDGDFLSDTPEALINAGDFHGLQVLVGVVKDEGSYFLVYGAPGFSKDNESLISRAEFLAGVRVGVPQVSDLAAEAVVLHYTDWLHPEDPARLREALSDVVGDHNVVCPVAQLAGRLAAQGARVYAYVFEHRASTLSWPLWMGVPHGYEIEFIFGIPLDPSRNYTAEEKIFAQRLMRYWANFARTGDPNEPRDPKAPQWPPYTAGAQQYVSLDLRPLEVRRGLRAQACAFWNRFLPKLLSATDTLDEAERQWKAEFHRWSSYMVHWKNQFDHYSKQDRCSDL
# Sequence of Nitric oxide synthase 1 (P29476 whole entry): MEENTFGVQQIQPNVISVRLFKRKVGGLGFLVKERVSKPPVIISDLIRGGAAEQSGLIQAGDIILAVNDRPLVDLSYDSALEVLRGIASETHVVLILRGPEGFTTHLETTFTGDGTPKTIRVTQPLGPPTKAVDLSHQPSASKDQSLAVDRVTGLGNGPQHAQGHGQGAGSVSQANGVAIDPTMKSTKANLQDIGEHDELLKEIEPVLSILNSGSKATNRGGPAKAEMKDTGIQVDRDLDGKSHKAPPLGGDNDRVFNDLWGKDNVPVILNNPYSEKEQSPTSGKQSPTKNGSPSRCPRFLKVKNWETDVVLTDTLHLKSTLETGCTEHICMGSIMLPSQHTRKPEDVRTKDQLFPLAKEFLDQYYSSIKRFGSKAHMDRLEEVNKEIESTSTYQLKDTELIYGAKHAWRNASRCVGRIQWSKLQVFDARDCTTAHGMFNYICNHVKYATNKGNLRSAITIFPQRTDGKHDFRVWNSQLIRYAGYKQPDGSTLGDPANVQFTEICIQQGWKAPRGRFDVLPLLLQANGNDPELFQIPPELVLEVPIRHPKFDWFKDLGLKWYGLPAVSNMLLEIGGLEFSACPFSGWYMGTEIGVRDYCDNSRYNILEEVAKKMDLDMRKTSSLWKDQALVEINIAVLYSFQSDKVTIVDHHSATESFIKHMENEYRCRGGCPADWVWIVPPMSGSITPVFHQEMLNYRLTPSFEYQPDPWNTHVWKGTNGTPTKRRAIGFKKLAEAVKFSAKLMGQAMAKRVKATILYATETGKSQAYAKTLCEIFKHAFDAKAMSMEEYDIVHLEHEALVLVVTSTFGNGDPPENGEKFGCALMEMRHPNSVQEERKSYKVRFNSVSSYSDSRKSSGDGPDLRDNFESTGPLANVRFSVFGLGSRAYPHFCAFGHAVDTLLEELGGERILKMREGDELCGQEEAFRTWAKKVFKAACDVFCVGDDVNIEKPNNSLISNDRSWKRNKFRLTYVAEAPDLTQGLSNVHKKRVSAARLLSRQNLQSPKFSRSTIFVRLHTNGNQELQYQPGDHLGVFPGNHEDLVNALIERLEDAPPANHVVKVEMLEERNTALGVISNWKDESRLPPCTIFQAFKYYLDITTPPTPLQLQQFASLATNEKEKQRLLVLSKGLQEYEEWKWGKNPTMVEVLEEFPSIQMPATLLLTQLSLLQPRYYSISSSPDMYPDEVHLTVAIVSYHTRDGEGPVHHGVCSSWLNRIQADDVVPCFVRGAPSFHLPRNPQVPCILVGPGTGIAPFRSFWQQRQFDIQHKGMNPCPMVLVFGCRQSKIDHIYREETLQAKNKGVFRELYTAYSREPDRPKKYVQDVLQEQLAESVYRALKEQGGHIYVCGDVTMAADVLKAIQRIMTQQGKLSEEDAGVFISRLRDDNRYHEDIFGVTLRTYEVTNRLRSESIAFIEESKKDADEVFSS
Compound,IC50 [1],Ki [1],IC50 (Acetylcholinesterase; hek293),IC50 (Interstitial collagenase),IC50 [2],Ki [2],IC50 [3],Ki [3],IC50 (Nitric oxide synthase 1),IC50 (Glycine receptor),IC50 [4],IC50 (Acetylcholinesterase; read-out: IC50),IC50 ([2]; read-out: IC50),Ki ([2]; read-out: Ki),Ki (Acetylcholinesterase; hek293),Ki (Interstitial collagenase),Ki (Nitric oxide synthase 1),Ki (Glycine receptor),Ki [4]
C=CCC1(C(C)CCC)C(=O)NC(=O)NC1=O (stereo not given) [SECOBARBITAL],Not Active,Not Active,Not Active,Not Active,Not Active,Not Active,Not Active,Not Active,Not Active,Not Active,Not Active,,,,,,,,
C[C@@H]1CN(c2c(F)c(N)c3c(=O)c(C(=O)O)cn(C4CC4)c3c2F)C[C@H](C)N1 [SPARFLOXACIN],Not Active,Not Active,Not Active,Not Active,Not Active,Not Active,Not Active,Not Active,Not Active,Not Active,Not Active,,,,,,,,
Cc1noc(NS(=O)(=O)c2ccc(N)cc2)c1C [SULFISOXAZOLE],Not Active,Not Active,Not Active,Not Active,Not Active,Not Active,Not Active,Not Active,Not Active,Not Active,Not Active,,,,,,,,
CSc1ccc(/C=C2/C(C)=C(CC(=O)O)c3cc(F)ccc32)cc1 [SULINDAC SULFIDE],Not Active,Not Active,Not Active,Not Active,Not Active,Not Active,Not Active,Not Active,Not Active,Not Active,Not Active,,,,,,,,
CC(C)N1CCN(c2ccc(OCC3COC(Cn4cncn4)(c4ccc(Cl)cc4Cl)O3)cc2)CC1 (stereo not given) [TERCONAZOLE],Not Active,Not Active,,Not Active,,,Not Active,Not Active,Not Active,Not Active,Not Active,21.6 µM,24.9 µM,6.32 µM,,,,,
Cc1cccc(N(C)C(=S)Oc2ccc3ccccc3c2)c1 [TOLNAFTATE],Not Active,Not Active,Not Active,Not Active,Not Active,Not Active,Not Active,Not Active,Not Active,Not Active,Not Active,,,,,,,,
NC[C@H]1CC[C@H](C(=O)O)CC1 [TRANEXAMIC ACID],Not Active,Not Active,Not Active,Not Active,Not Active,Not Active,Not Active,Not Active,Not Active,Not Active,Not Active,,,,,,,,
CC1(C)O[C@@H]2C[C@H]3[C@@H]4CCC5=CC(=O)C=C[C@]5(C)[C@@]4(F)[C@@H](O)C[C@]3(C)[C@]2(C(=O)CO)O1 [TRIAMCINOLONE ACETONIDE],Not Active,Not Active,Not Active,Not Active,Not Active,Not Active,Not Active,Not Active,Not Active,Not Active,Not Active,,,,,,,,
NS(=O)(=O)c1cc2c(cc1Cl)NC(C(Cl)Cl)NS2(=O)=O (stereo not given) [TRICHLORMETHIAZIDE],Not Active,Not Active,Not Active,Not Active,Not Active,Not Active,Not Active,Not Active,Not Active,Not Active,Not Active,,,,,,,,
Cc1c(C)c2c(c(C)c1O)CCC(C)(COc1ccc(CC3SC(=O)NC3=O)cc1)O2 (stereo not given) [TROGLITAZONE],Not Active,Not Active,Not Active,Not Active,Not Active,Not Active,Not Active,Not Active,Not Active,Not Active,Not Active,,,,,,,,
N[C@@H]1[C@H]2CN(c3nc4c(cc3F)c(=O)c(C(=O)O)cn4-c3ccc(F)cc3F)C[C@@H]12 [TROVAFLOXACIN],Not Active,Not Active,Not Active,Not Active,Not Active,Not Active,Not Active,Not Active,Not Active,Not Active,Not Active,,,,,,,,
N#CC(C#N)=Cc1ccc(O)c(O)c1 [TYRPHOSTIN 23],Not Active,Not Active,Not Active,Not Active,Not Active,Not Active,Not Active,Not Active,Not Active,Not Active,Not Active,,,,,,,,
CC[C@]1(O)C[C@H]2CN(CCc3c([nH]c4ccccc34)[C@@](C(=O)OC)(c3cc4c(cc3OC)N(C=O)[C@H]3[C@@](O)(C(=O)OC)[C@H](OC(C)=O)[C@]5(CC)C=CCN6CC[C@]43[C@@H]65)C2)C1 [VINCRISTINE],Not Active,Not Active,Not Active,Not Active,Not Active,Not Active,Not Active,Not Active,Not Active,Not Active,Not Active,,,,,,,,
CCCOc1ccccc1-c1nc2nn[nH]c2c(=O)[nH]1 [ZAPRINAST],Not Active,Not Active,Not Active,Not Active,Not Active,Not Active,Not Active,Not Active,Not Active,Not Active,Not Active,,,,,,,,
SODIUM NITROPRUSSIDE,Not Active,Not Active,Not Active,Not Active,Not Active,Not Active,Not Active,Not Active,Not Active,Not Active,Not Active,,,,Not Active,Not Active,Not Active,Not Active,Not Active
